The values below come from ChEMBL document CHEMBL3244263, “Derivatives of 1,2,3,11a-tetrahydro-5H-pyrrolo[2,1-c][1,4]benzodiazepine-5,11(10H)-dione as anxiolytic agents” (J Med Chem, 1978).

The ED50 is the dose at which the effect has come halfway, by size or by number of responders.

For data set [1], the species on record is Rattus norvegicus. Kind of data set: Drug metabolism in rat assessed as monohydroxylated product formation. The class given is ADME, organism-based. The note with it: in vivo.
The species entered for data set [2] is Rattus norvegicus. The experiment in a line: Toxicity in rat assessed as depression. Format: organism-based. To be noted: in vivo.
The species named for data set [3] is Rattus norvegicus. The experiment in a line: Drug metabolism in rat assessed as aliphatic hydroxylated product formation. The note with it: in vivo. The class given is ADME, organism-based.
The species named for data set [4] is Rattus norvegicus. The experiment in a line: Drug metabolism in rat assessed as 2,3-dihydro-1H-benzo[e]pyrrolo[1,2-a][1,4]diazepine-5,11(10H,11aH)-dione formation. Format: ADME, organism-based. The note with it: in vivo.
Data set [5] concerns Rattus norvegicus. The experiment in a line: Anxiolytic activity in po dosed rat assessed as protection against pentylenetetrazole-induced seizures administered in 2% starch. The class given is functional.
For data set [6], the species on record is Rattus norvegicus. Kind of data set: Drug metabolism in rat assessed as 3,11a-dihydroxy-10-methyl-2,3-dihydro-1H-benzo[e]pyrrolo[1,2-a][1,4]diazepine-5,11(10H,11aH)-dione formation by GC-MS/NMR analysis. The note with it: in vivo. The class given is ADME, organism-based.
Data set [7] is filed under the species Rattus norvegicus. The experiment in a line: Drug metabolism in rat assessed as dihydroxylated product formation. Format: ADME, organism-based. To be noted: in vivo.
The next data set is filed under the species Homo sapiens. The experiment in a line: Anxiolytic activity in human. Format: functional, organism-based.
For a further data set, the species on record is Mus musculus. Kind of data set: Anxiolytic activity in mouse assessed as suppression of pentylenetetrazole-induced convulsion. The class given is functional, organism-based.
The species entered for data set [8] is Rattus norvegicus. Kind of data set: Anxiolytic activity in thirsty rat by increased conflict responding test. Format: functional, organism-based.
The species named for a further data set is Canis familiaris. Kind of data set: Anxiolytic activity in dog assessed as suppression of pentylenetetrazole-induced convulsion. The class given is functional, organism-based. To be noted: Canis lupus familiaris.
In another data set the test system is Squirrel monkey. The experiment in a line: Anxiolytic activity in squirrel monkey by conflict responding test. The class given is functional, organism-based. To be noted: Saimiri sciureus.
The species entered for data set [9] is Rattus norvegicus. Kind of data set: Drug metabolism in rat treated with 10-methyl-2,3-dihydro-1H-benzo[e]pyrrolo[1,2-a][1,4]diazepine-5,11(10H,11aH)-dione. Format: ADME, organism-based. The note with it: in vivo.
The mark [10] stands for this setting: Rattus norvegicus, po, read-out: ED50.

Calls of active or inactive are those of the source. The rule behind the calls is not given here. Bounds are passed on as bounds.

On to `CN1C(=O)C2CCCN2C(=O)c2ccccc21` (single isomer, unassigned; (+)) [listing 1 of 2 here], for which the Drug metabolism result in the data set filed under Rattus norvegicus [1], in the data set listed under Rattus norvegicus [3], in the data set filed under Rattus norvegicus [4], in the data set listed under Rattus norvegicus [6] and in the data set filed under Rattus norvegicus [7] was “metabolite_detected” in each case. Besides, in the data set filed under Rattus norvegicus [2], the Activity result is “Non-toxic”. Moreover, the median effective dose (ED50) in the data set on Rattus norvegicus [5] amounted to 9.9 mg/kg.
As to `O=C1Nc2ccc(F)cc2C(=O)N2CCCC12` (configuration not stated), the ED50 in the data set on Rattus norvegicus [5] (setting [10]) was 23 mg/kg.
As for `CN1C(=O)C2CCCN2C(=O)c2ccccc21` (single isomer, unassigned; (+)) [listing 2 of 2 here], the outcome in the data set listed under Homo sapiens was inactive. In addition, the outcome in the data set filed under Mus musculus, in the data set listed under Rattus norvegicus [8], in the data set listed under Canis familiaris and with Squirrel monkey was Active.
As to `CN1C(=O)CN=C(c2ccccc2)c2cc(Cl)ccc21` [DIAZEPAM], the Activity result in the data set listed under Rattus norvegicus [2] is “Toxic”.
With `CN1C(=O)C2(O)CCC(O)N2C(=O)c2ccccc21` (configuration not stated), in the data set filed under Rattus norvegicus [9], the Drug metabolism result is given as “metabolite_detected”.
`CCCC(C)(COC(N)=O)COC(N)=O` [MEPROBAMATE]: the 50% effective dose (ED50) with Rattus norvegicus [5] (setting [10]) came out at 21.5 mg/kg.
With `O=C1Nc2ccccc2C(=O)N2CCCC12` (single isomer, unassigned; (+)), the ED50 in the data set with Rattus norvegicus [5] (setting [10]) is 35 mg/kg.
As for `CN1C(=O)C2CCCN2C(=O)c2ccccc21` (single isomer, unassigned; (-)), in the data set on Rattus norvegicus [5], the ED50 is over 200 mg/kg.
The same measure, in the same setting: as for `CN1C(=O)C2CCCN2C(=O)c2ccccc21` (stereo in doubt; 2), the figure is 20.2 mg/kg.
Take `CN1C(=O)C2CCCN2C(=O)c2cc(F)ccc21` (single isomer, unassigned; (+)): the median effective dose (ED50) in the data set on Rattus norvegicus [5] (setting [10]) stood at 3.9 mg/kg.
Turning to `CNC1=Nc2ccc(Cl)cc2C(c2ccccc2)=[N+]([O-])C1` [CHLORDIAZEPOXIDE], in the data set filed under Rattus norvegicus [2], the Activity entry is given as “Toxic”. For the same molecule, in the data set on Rattus norvegicus [5] (setting [10]), the ED50 amounted to 2.5 mg/kg.
